In patent US12552825B2 (Zikani Therapeutics, Inc., priority 2019, dated 2026):
≈ marks a conversion by molar mass, not a printed value.

Legend:
Assay type in all cases: cell-based
S. aureus MP-12 = assay: microbe, parasite or virus in culture; conditions: Staphylococcus aureus, MP12, read-out: MIC S. aureus MP-12
E. coli MP-4 = assay: MIC determination by CLSI broth dilution, E. coli MP-4; conditions: Escherichia coli, MP4, CLSI broth dilution; strain MP-4
K. pneumoniae MP-546 = assay: MIC determination by CLSI broth dilution, K. pneumoniae MP-546; conditions: Klebsiella pneumoniae, MP546, CLSI broth dilution; strain MP-546
P. aeruginosa MP-3 = assay: MIC determination by CLSI broth dilution, P. aeruginosa MP-3; conditions: Pseudomonas aeruginosa, MP3, strain MP-3
A. baumannii MP-15 = assay: MIC determination by CLSI broth dilution, A. baumannii MP-15; conditions: Acinetobacter baumannii, MP15, strain MP-15, read-out: MIC A. baumanii MP-15

| SMILES | MIC (S. aureus MP-12) [µg/mL] | MIC (E. coli MP-4) [µg/mL] | MIC (K. pneumoniae MP-546) [µg/mL] | MIC (P. aeruginosa MP-3) [µg/mL] | MIC (A. baumannii MP-15) [µg/mL] |
| --- | --- | --- | --- | --- | --- |
| CO[C@]1(C)C[C@@H](C)CN(C)[C@@H](CC2CCN(CC(C)C)CC2)COC(=O)C(C)(C)C(=O)[C@H](C)[C@H]1O[C@@H]1O[C@H](C)C[C@H](N(C)C)[C@H]1O [Compound 67] | > 32 | 4 to 32 (≈ 6.12 to 48.9 µM) | 4 to 32 (≈ 6.12 to 48.9 µM) | > 32 | > 32 |
| CO[C@]1(C)C[C@@H](C)CN(C)[C@@H](CC2CCN(C(C)C)CC2)COC(=O)C(C)(C)C(=O)[C@H](C)[C@H]1O[C@@H]1O[C@H](C)C[C@H](N(C)C)[C@H]1O [Compound 68] | > 32 | 4 to 32 (≈ 6.25 to 50 µM) | 4 to 32 (≈ 6.25 to 50 µM) | > 32 | > 32 |
| CO[C@]1(C)C[C@@H](C)CN(C)[C@@H](CC2CCN(C3CC3)CC2)COC(=O)C(C)(C)C(=O)[C@H](C)[C@H]1O[C@@H]1O[C@H](C)C[C@H](N(C)C)[C@H]1O [Compound 69] | 4 to 32 (≈ 6.27 to 50.2 µM) | 4 to 32 (≈ 6.27 to 50.2 µM) | 4 to 32 (≈ 6.27 to 50.2 µM) | > 32 | > 32 |
| CCCCCCCN1CCC(C[C@H]2COC(=O)C(C)(C)C(=O)[C@H](C)[C@@H](O[C@@H]3O[C@H](C)C[C@H](N(C)C)[C@H]3O)[C@](C)(OC)C[C@@H](C)CN2C)CC1 [Compound 70] | > 32 | < 4 | 4 to 32 (≈ 5.75 to 46 µM) | > 32 | > 32 |
| CO[C@]1(C)C[C@@H](C)CN(C)[C@@H](CC2CCN(CC[C@@H](C)CCC=C(C)C)CC2)COC(=O)C(C)(C)C(=O)[C@H](C)[C@H]1O[C@@H]1O[C@H](C)C[C@H](N(C)C)[C@H]1O [Compound 71] | > 32 | 4 to 32 (≈ 5.43 to 43.5 µM) | > 32 | > 32 | > 32 |
| CO[C@]1(C)C[C@@H](C)CN(C)[C@@H](CC2CCN(CC3CCCCC3)CC2)COC(=O)C(C)(C)C(=O)[C@H](C)[C@H]1O[C@@H]1O[C@H](C)C[C@H](N(C)C)[C@H]1O [Compound 72] | > 32 | < 4 | 4 to 32 (≈ 5.76 to 46.1 µM) | > 32 | > 32 |
| CO[C@]1(C)C[C@@H](C)CN(C)[C@@H](CN2CCN(S(C)(=O)=O)CC2)[C@H](C)OC(=O)C(C)(C)C(=O)[C@H](C)[C@H]1O[C@@H]1O[C@H](C)C[C@H](N(C)C)[C@H]1O [Compound 80, (2S,3S,6R,8R,9R,10R)-9-(((2S,3R,4S,6R)-4-(dimethylamino)-3-hydroxy-6-methyltetrahydro-2H-pyran-2-yl)oxy)-8-methoxy-2,4,6,8,10,12,12-heptamethyl-3-((4-(methylsulfonyl)piperazin-1-yl)methyl)-1-oxa-4-azacyclotridecane-11,13-dione] | 4 to 32 (≈ 5.79 to 46.3 µM) | > 32 | > 32 | > 32 | > 32 |
| CO[C@]1(C)C[C@@H](C)CN(C)[C@@H](CN2CCN(S(=O)(=O)c3cn(C)cn3)CC2)[C@H](C)OC(=O)C(C)(C)C(=O)[C@H](C)[C@H]1O[C@@H]1O[C@H](C)C[C@H](N(C)C)[C@H]1O [Compound 81, (2S,3S,6R,8R,9R,10R)-9-(((2S,3R,4S,6R)-4-(dimethylamino)-3-hydroxy-6-methyltetrahydro-2H-pyran-2-yl)oxy)-8-methoxy-2,4,6,8,10,12,12-heptamethyl-3-((4-((1-methyl-1H-imidazol-4-yl)sulfonyl)piperazin-1-yl)methyl)-1-oxa-4-azacyclotridecane-11,13-dione] | 4 to 32 (≈ 5.28 to 42.3 µM) | > 32 | > 32 | > 32 | > 32 |
| CO[C@]1(C)C[C@@H](C)CN(C)[C@@H](CCCN2CCCCC2)COC(=O)C(C)(C)C(=O)[C@H](C)[C@H]1O[C@@H]1O[C@H](C)C[C@H](N(C)C)[C@H]1O [Compound 83, (3S,6R,8R,9R,10R)-9-(((2S,3R,4S,6R)-4-(dimethylamino)-3-hydroxy-6-methyltetrahydro-2H-pyran-2-yl)oxy)-8-methoxy-4,6,8,10,12,12-hexamethyl-3-(3-(piperidin-1-yl)propyl)-1-oxa-4-azacyclotridecane-11,13-dione] | 4 to 32 (≈ 6.39 to 51.1 µM) | < 4 | < 4 | > 32 | > 32 |
| CO[C@]1(C)C[C@@H](C)CN(C)[C@@H](C(=O)N2CCN(C(C)C)CC2)[C@H](C)OC(=O)C(C)(C)C(=O)[C@H](C)[C@H]1O[C@@H]1O[C@H](C)C[C@H](N(C)C)[C@H]1O [Compound 91, (2S,3R,6R,8R,9R,10R)-9-(((2S,3R,4S,6R)-4-(dimethylamino)-3-hydroxy-6-methyltetrahydro-2H-pyran-2-yl)oxy)-3-(4-isopropylpiperazine-1-carbonyl)-8-methoxy-2,4,6,8,10,12,12-heptamethyl-1-oxa-4-azacyclotridecane-11,13-dione] | > 32 | > 32 | > 32 | > 32 | > 32 |
| CO[C@]1(C)C[C@@H](C)CN(C)[C@@H](C(=O)N2CCN(C)CC2)[C@H](C)OC(=O)C(C)(C)C(=O)[C@H](C)[C@H]1O[C@@H]1O[C@H](C)C[C@H](N(C)C)[C@H]1O [Compound 97, (2S,3R,6R,8R,9R,10R)-9-(((2S,3R,4S,6R)-4-(dimethylamino)-3-hydroxy-6-methyltetrahydro-2H-pyran-2-yl)oxy)-8-methoxy-2,4,6,8,10,12,12-heptamethyl-3-(4-methylpiperazine-1-carbonyl)-1-oxa-4-azacyclotridecane-11,13-dione] | > 32 | > 32 | > 32 | > 32 | > 32 |
| CO[C@]1(C)C[C@@H](C)CN(C)[C@@H](CN(C)Cc2nccn2C)COC(=O)C(C)(C)C(=O)[C@H](C)[C@H]1O[C@@H]1O[C@H](C)C[C@H](N(C)C)[C@H]1O [Compound 104, (3S,6R,8R,9R,10R)-9-(((2S,3R,4S,6R)-4-(Dimethylamino)-3-hydroxy-6-methyltetrahydro-2H-pyran-2-yl)oxy)-8-methoxy-4,6,8,10,12,12-hexamethyl-3-((methyl((1-methyl-11H-imidazol-2-yl)methyl)amino)methyl)-1-oxa-4-azacyclotridecane-11,13-dione] | > 32 | 4 to 32 (≈ 6.27 to 50.2 µM) | > 32 | > 32 | > 32 |
| CO[C@]1(C)C[C@@H](C)CN(C)[C@@H](CN2CCN(C(=O)C(F)(F)F)CC2)[C@H](C)OC(=O)C(C)(C)C(=O)[C@H](C)[C@H]1O[C@@H]1O[C@H](C)C[C@H](N(C)C)[C@H]1O [Compound 109, (2S,3S,6R,8R,9R,10R)-9-(((2S,3R,4S,6R)-4-(dimethylamino)-3-hydroxy-6-methyltetrahydro-2H-pyran-2-yl)oxy)-8-methoxy-2,4,6,8,10,12,12-heptamethyl-3-((4-(2,2,2-trifluoroacetyl)piperazin-1-yl)methyl)-1-oxa-4-azacyclotridecane-11,13-dione] | 4 to 32 (≈ 5.64 to 45.1 µM) | 4 to 32 (≈ 5.64 to 45.1 µM) | > 32 | > 32 | > 32 |
| CO[C@]1(C)C[C@@H](C)CN(C)[C@@H](CN2CCN(C(=O)C(C)(C)C)CC2)[C@H](C)OC(=O)C(C)(C)C(=O)[C@H](C)[C@H]1O[C@@H]1O[C@H](C)C[C@H](N(C)C)[C@H]1O [Compound 114, (2S,3S,6R,8R,9R,10R)-9-(((2S,3R,4S,6R)-4-(dimethylamino)-3-hydroxy-6-methyltetrahydro-2H-pyran-2-yl)oxy)-8-methoxy-2,4,6,8,10,12,12-heptamethyl-3-((4-pivaloylpiperazin-1-yl)methyl)-1-oxa-4-azacyclotridecane-11,13-dione] | 4 to 32 (≈ 5.74 to 45.9 µM) | > 32 | > 32 | > 32 | > 32 |
| CO[C@]1(C)C[C@@H](C)CN(C)[C@@H](C(=O)N2CCN(CC(F)(F)F)CC2)[C@H](C)OC(=O)C(C)(C)C(=O)[C@H](C)[C@H]1O[C@@H]1O[C@H](C)C[C@H](N(C)C)[C@H]1O [Compound 130, (2S,3R,6R,8R,9R,10R)-9-(((2S,3R,4S,6R)-4-(dimethylamino)-3-hydroxy-6-methyltetrahydro-2H-pyran-2-yl)oxy)-8-methoxy-2,4,6,8,10,12,12-heptamethyl-3-(4-(2,2,2-trifluoroethyl)piperazine-1-carbonyl)-1-oxa-4-azacyclotridecane-11,13-dione] | > 32 | > 32 | > 32 | > 32 | > 32 |
| CCC(=O)N1CCN(C[C@H]2[C@H](C)OC(=O)C(C)(C)C(=O)[C@H](C)[C@@H](O[C@@H]3O[C@H](C)C[C@H](N(C)C)[C@H]3O)[C@](C)(OC)C[C@@H](C)CN2C)CC1 [Compound 133, (2S,3S,6R,8R,9R,10R)-9-(((2S,3R,4S,6R)-4-(dimethylamino)-3-hydroxy-6-methyltetrahydro-2H-pyran-2-yl)oxy)-8-methoxy-2,4,6,8,10,12,12-heptamethyl-3-((4-propionylpiperazin-1-yl)methyl)-1-oxa-4-azacyclotridecane-11,13-dione] | 4 to 32 (≈ 5.98 to 47.8 µM) | > 32 | > 32 | > 32 | > 32 |
| CO[C@]1(C)C[C@@H](C)CN(C)[C@@H](CN2CCN(C(C)=O)CC2)[C@H](C)OC(=O)C(C)(C)C(=O)[C@H](C)[C@H]1O[C@@H]1O[C@H](C)C[C@H](N(C)C)[C@H]1O [Compound 135, (2S,3S,6R,8R,9R,10R)-3-((4-acetylpiperazin-1-yl)methyl)-9-(((2S,3R,4S,6R)-4-(dimethylamino)-3-hydroxy-6-methyltetrahydro-2H-pyran-2-yl)oxy)-8-methoxy-2,4,6,8,10,12,12-heptamethyl-1-oxa-4-azacyclotridecane-11,13-dione] | 4 to 32 (≈ 6.11 to 48.9 µM) | > 32 | > 32 | > 32 | > 32 |
